These results are taken from ChEMBL document CHEMBL5390268, “α-Pyrone Derivatives from Calcarisporium arbuscula Discovered by Genome Mining” (J Nat Prod, 2023).

Calls of active or inactive are those of the source. The rule behind the calls is not given here.

The test system of experiment [1] is HepG2. The experiment is described as follows: Cytotoxicity against human HepG2 cells assessed as inhibition of cell proliferation at 20 ug/ml incubated for 48 hrs by MTS assay. The format is functional, cell-based. The following applies: dose 20.0 µg/ml.
Experiment [2] deals with B16. The experiment is described as follows: Cytotoxicity against mouse B16 cells assessed as inhibition of cell proliferation at 20 ug/ml incubated for 48 hrs by MTS assay. It is filed as functional, cell-based. The following applies: dose 20.0 µg/ml.
Experiment [3] has as its system HCT-116. The experiment is described as follows: Cytotoxicity against human HCT-116 cells assessed as inhibition of cell proliferation at 20 ug/ml incubated for 48 hrs by MTS assay. The format is functional, cell-based. To be noted: dose 20.0 µg/ml. On the technique in general: Tetrazolium dyes change colour on reduction, which living cells bring about.
Another experiment has as its system Bacillus subtilis. The experiment in a line: Antimicrobial activity against Bacillus subtilis assessed as bacterial growth inhibition incubated for 24 hrs by absorbance based assay. It is filed as functional, organism-based.
The subject of the next experiment is Escherichia coli. The experiment in a line: Antimicrobial activity against Escherichia coli assessed as bacterial growth inhibition incubated for 24 hrs by absorbance based assay. The format is functional, organism-based.
The next experiment has as its system Saccharomyces cerevisiae. The experiment is described as follows: Antimicrobial activity against Saccharomyces cerevisiae assessed as fungal growth inhibition by absorbance based assay. The format is functional, organism-based.
Another experiment relates to Candida albicans. The experiment in a line: Antimicrobial activity against Candida albicans assessed as fungal growth inhibition by absorbance based assay. The format is functional, organism-based.
Another experiment deals with Staphylococcus aureus. The experiment is described as follows: Antimicrobial activity against Staphylococcus aureus assessed as bacterial growth inhibition incubated for 24 hrs by absorbance based assay. The format is functional, organism-based.
The subject of experiment [4] is HepG2. The experiment in a line: Cytotoxicity against human HepG2 cells assessed as inhibition of cell proliferation incubated for 48 hrs by MTS assay. It is filed as functional, cell-based. To be noted: HepG2, 48 h.
Experiment [5] relates to B16. The experiment is described as follows: Cytotoxicity against mouse B16 cells assessed as inhibition of cell proliferation incubated for 48 hrs by MTS assay. It is filed as functional, cell-based. The following applies: B16, 48 h.
The subject of experiment [6] is HCT-116. The experiment in a line: Cytotoxicity against human HCT-116 cells assessed as inhibition of cell proliferation incubated for 48 hrs by MTS assay. It is filed as functional, cell-based. To be noted: HCT-116, 48 h.

With `CCCCC[C@@H](O)[C@H](O)c1cc(OC)cc(=O)o1`, the inhibition entry with HepG2 [1], with B16 [2], in the experiment on HCT-116 [3], with Bacillus subtilis, in the experiment with Escherichia coli and in the experiment on Saccharomyces cerevisiae was “inactive” each time. Further, the inhibition result in the experiment on Candida albicans and in the experiment with Staphylococcus aureus was “inactive” in each case.

With `CCCCC/C=C/c1cc(OC)cc(=O)o1`, the inhibition result in the experiment on HepG2 [1], in the experiment with B16 [2], with HCT-116 [3], in the experiment on Bacillus subtilis, in the experiment with Escherichia coli and in the experiment with Saccharomyces cerevisiae was “inactive” throughout. In addition, the inhibition entry with Candida albicans and in the experiment with Staphylococcus aureus was “inactive” each time.

With `C/C=C/CC[C@@H](O)[C@H](O)c1cc(OC)cc(=O)o1`, the inhibition result with HepG2 [1], with B16 [2], in the experiment with HCT-116 [3], in the experiment with Bacillus subtilis, in the experiment on Escherichia coli and in the experiment on Saccharomyces cerevisiae was “inactive” throughout. For the same molecule, the inhibition result in the experiment on Candida albicans and with Staphylococcus aureus was “inactive” each time.

For the molecule `C/C=C/CC/C=C/c1cc(OC)cc(=O)o1`, the figures for the IC50 in the experiment with HepG2 [4], in the experiment with B16 [5] and in the experiment with HCT-116 [6] were 41.8 µM, 38.5 µM and 21.7 µM, respectively. Also, the inhibition result in the experiment with Bacillus subtilis, in the experiment on Escherichia coli, in the experiment with Saccharomyces cerevisiae, with Candida albicans and in the experiment on Staphylococcus aureus was “inactive” throughout.
